Experimental data taken from PMC5481569, “A Bacteroidetes locus dedicated to fungal 1,6-β-glucan degradation: Unique substrate conformation drives specificity of the key endo-1,6-β-glucanase” (The Journal of Biological Chemistry, 2017).

Legend:
BT3313 = biological target: T1, BT3313 (Bacteroides thetaiotaomicron, UniProt Q8A2J2); assay: isothermal titration calorimetry; assay type: binding; conditions: 50 mM Na-Hepes, pH 7.5, 25 °C
T1 construct: gene BT_3313; signal peptide (lipoprotein) removed; N-terminal hexahistidine tag; pET28 derivative, E. coli
T1 sequence (Q8A2J2 20-667): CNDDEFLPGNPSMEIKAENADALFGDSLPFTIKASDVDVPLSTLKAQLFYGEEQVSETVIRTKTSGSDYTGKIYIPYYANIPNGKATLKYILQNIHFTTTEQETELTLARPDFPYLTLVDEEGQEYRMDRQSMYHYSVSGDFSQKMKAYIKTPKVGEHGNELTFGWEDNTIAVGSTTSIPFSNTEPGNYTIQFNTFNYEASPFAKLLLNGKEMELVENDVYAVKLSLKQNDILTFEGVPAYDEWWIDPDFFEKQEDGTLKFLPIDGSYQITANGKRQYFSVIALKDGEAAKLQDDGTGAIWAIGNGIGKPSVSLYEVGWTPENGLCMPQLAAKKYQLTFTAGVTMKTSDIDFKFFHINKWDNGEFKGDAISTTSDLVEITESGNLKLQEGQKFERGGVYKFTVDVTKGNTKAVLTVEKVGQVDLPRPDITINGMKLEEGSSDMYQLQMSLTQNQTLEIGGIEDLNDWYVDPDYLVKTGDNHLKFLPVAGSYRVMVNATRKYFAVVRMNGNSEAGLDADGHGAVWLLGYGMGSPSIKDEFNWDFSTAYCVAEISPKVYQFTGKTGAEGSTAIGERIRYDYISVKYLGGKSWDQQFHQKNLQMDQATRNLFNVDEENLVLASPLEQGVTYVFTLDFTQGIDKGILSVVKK
Excerpt: isothermal titration calorimetry on BT3313

BT3311 = biological target: T2, BT3311 (Bacteroides thetaiotaomicron, UniProt Q8A2J4); assay: isothermal titration calorimetry; assay type: binding; conditions: 50 mM Na-Hepes, pH 7.5, 25 °C
T2 construct: gene BT_3311; signal peptide (lipoprotein) removed; N-terminal hexahistidine tag; pET28 derivative, E. coli
T2 sequence (Q8A2J4 22-506): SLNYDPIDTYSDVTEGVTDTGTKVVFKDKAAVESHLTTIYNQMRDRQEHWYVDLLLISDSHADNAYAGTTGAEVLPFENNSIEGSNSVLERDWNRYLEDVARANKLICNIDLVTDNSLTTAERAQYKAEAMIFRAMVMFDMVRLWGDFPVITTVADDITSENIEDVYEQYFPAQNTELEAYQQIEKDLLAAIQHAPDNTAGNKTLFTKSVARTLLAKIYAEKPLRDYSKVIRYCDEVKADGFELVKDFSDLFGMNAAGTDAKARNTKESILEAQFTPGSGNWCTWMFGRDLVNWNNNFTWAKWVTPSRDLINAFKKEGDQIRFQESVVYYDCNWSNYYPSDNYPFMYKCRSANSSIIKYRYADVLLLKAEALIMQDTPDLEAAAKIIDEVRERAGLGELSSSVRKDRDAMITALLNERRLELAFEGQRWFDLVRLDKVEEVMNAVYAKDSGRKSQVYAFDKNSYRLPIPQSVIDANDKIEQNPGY
Excerpt: isothermal titration calorimetry on BT3311

BT3312 = biological target: T3, BT3312 (Bacteroides thetaiotaomicron, UniProt Q8A2J3); assay: glucose release from […]-β-glucotriose (D-glucose detection kit); also crystal structure, […] Å; assay type: biochemical
T3 construct: gene BT_3312; signal peptide (lipoprotein) removed; N-terminal hexahistidine tag; pET28 derivative, E. coli Tuner; residues 82-427 form the TIM barrel domain
T3 sequence (Q8A2J3 22-496): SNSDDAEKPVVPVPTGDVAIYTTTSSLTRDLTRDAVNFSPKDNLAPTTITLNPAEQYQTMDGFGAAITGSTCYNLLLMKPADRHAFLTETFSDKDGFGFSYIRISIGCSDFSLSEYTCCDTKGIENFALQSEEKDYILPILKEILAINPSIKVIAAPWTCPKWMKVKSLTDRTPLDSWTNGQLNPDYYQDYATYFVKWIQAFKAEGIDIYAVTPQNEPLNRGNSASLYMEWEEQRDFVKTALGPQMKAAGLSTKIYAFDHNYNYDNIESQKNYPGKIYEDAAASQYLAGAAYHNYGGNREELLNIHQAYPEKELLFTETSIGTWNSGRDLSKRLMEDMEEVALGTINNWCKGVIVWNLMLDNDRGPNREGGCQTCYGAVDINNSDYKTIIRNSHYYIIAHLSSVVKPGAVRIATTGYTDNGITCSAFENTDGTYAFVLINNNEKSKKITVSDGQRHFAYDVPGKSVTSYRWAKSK

Row | SMILES | Ka (BT3313) | Ka (BT3311) | Ki (BT3312)
1 | OC[C@H]1O[C@@H](OC[C@H]2O[C@@H](OC[C@H]3O[C@@H](OC[C@H]4O[C@@H](OC[C@H]5O[C@@H](OC[C@H]6O[C@@H](OC[C@H]7OC(O)[C@H](O)[C@@H](O)[C@@H]7O)[C@H](O)[C@@H](O)[C@@H]6O)[C@H](O)[C@@H](O)[C@@H]5O)[C@H](O)[C@@H](O)[C@@H]4O)[C@H](O)[C@@H](O)[C@@H]3O)[C@H](O)[C@@H](O)[C@@H]2O)[C@H](O)[C@@H](O)[C@@H]1O (stereo partly drawn) [1,6-β-Glucoheptaose] | 1.5 × 10^4 ± 0.2 | 2.1 × 10^4 ± 0.1 | 
2 | OC[C@H]1O[C@@H](OC[C@H]2O[C@@H](OC[C@H]3O[C@@H](OC[C@H]4O[C@@H](OC[C@H]5OC(O)[C@H](O)[C@@H](O)[C@@H]5O)[C@H](O)[C@@H](O)[C@@H]4O)[C@H](O)[C@@H](O)[C@@H]3O)[C@H](O)[C@@H](O)[C@@H]2O)[C@H](O)[C@@H](O)[C@@H]1O (stereo partly drawn) [1,6-β-Glucopentaose] | 3.6 × 10^3 ± 0.2 | 8.3 × 10^3 ± 0.3 | 
3 | OC[C@H]1O[C@@H](OC[C@H]2NC[C@H](O)[C@@H](O)[C@@H]2O)[C@H](O)[C@@H](O)[C@@H]1O [compound 5, β-D-Glucopyranosyl-1,6-deoxynojirimycin] |  |  | ~1000 µM
4 | OC[C@H]1O[C@@H](OC[C@H]2O[C@@H](OC[C@H]3O[C@@H](OC[C@H]4O[C@@H](OC[C@H]5O[C@@H](OC[C@H]6OC(O)[C@H](O)[C@@H](O)[C@@H]6O)[C@H](O)[C@@H](O)[C@@H]5O)[C@H](O)[C@@H](O)[C@@H]4O)[C@H](O)[C@@H](O)[C@@H]3O)[C@H](O)[C@@H](O)[C@@H]2O)[C@H](O)[C@@H](O)[C@@H]1O (stereo partly drawn) [1,6-β-Glucohexaose] | 8.0 × 10^3 ± 0.7 | 1.6 × 10^4 ± 0.1 | 
